Source: PubChem BioAssay (NCI)
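Each compound was tested at five concentrations against cells in 96-well plates for 48 hours. Abbreviation: GI50, concentration required for 50% inhibition of growth. TGI: total growth inhibition.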

How the values were obtained:
Assay in all cases: inhibition of tumour cell growth, NCI panel, 48 h
SR leukemia = test system: SR leukemia
RPMI-8226 leukemia = test system: RPMI-8226 leukemia
SW-620 colon = test system: SW-620 colon
BT-549 breast = test system: BT-549 breast
MALME-3M melanoma = test system: MALME-3M melanoma
NCI-H23 lung = test system: NCI-H23 lung
K-562 leukemia = test system: K-562 leukemia
HT29 colon = test system: HT29 colon
KM12 colon = test system: KM12 colon
OVCAR-8 ovarian = test system: OVCAR-8 ovarian

| Structure (SMILES) | GI50 (SR leukemia) [µM] | TGI (SR leukemia) [µM] | GI50 (RPMI-8226 leukemia) [µM] | TGI (RPMI-8226 leukemia) [µM] | GI50 (SW-620 colon) [µM] | TGI (SW-620 colon) [µM] | GI50 (BT-549 breast) [µM] | TGI (BT-549 breast) [µM] | GI50 (MALME-3M melanoma) [µM] | TGI (MALME-3M melanoma) [µM] | GI50 (NCI-H23 lung) [µM] | TGI (NCI-H23 lung) [µM] | GI50 (K-562 leukemia) [µM] | TGI (K-562 leukemia) [µM] | GI50 (HT29 colon) [µM] | TGI (HT29 colon) [µM] | GI50 (KM12 colon) [µM] | TGI (KM12 colon) [µM] | GI50 (OVCAR-8 ovarian) [µM] | TGI (OVCAR-8 ovarian) [µM] |
| --- | --- | --- | --- | --- | --- | --- | --- | --- | --- | --- | --- | --- | --- | --- | --- | --- | --- | --- | --- | --- |
| C[C@@H]1O[C@@H](O[C@H]2C[C@@H](O)[C@]3(CO)C4C(CC[C@]3(O)C2)[C@@]2(O)CC[C@H](C3=CC(=O)OC3)[C@@]2(C)C[C@H]4O)[C@H](O)[C@H](O)[C@H]1O (stereo partly specified) | 0.0105 | 0.0317 | 0.0672 | 1.76 | 0.022 | 0.0869 | 0.0186 | 0.0624 | 0.0197 | 0.0828 | 0.0163 | 0.0602 | 0.0323 | 0.162 | 0.0248 | 0.0836 | 0.0512 | 0.132 | 0.0189 | 0.0691 |
| COc1cc2c(-c3nc4cc(Cl)c(F)cc4s3)cc(=O)oc2c(C)c1OC | – | – | – | – | – | – | 0.648 | 1.82 | 0.311 | 1.14 | – | – | – | – | – | – | – | – | 1.5 | 3.47 |
| O=C1Nc2ccc(F)c3c(OCCO)cc(-c4ccc[nH]4)c1c23 | 0.963 | 5.51 | 1.82 | 8.18 | 0.837 | 8.23 | 3.21 | 11.6 | 3.47 | 11.5 | 1.27 | 8.05 | 5.28 | 25 | 1.99 | 9.95 | 0.274 | 2.37 | 2.76 | 18.3 |
| COC1=CC(c2ccc[nH]2)=N/C1=C\c1[nH]c(C)c(C(=O)CCC(=O)Oc2ccc3c(c2)CCC2C3CC[C@]3(C)C(=O)CC[C@@H]23)c1C (stereo partly specified) | 0.634 | > 100 | 5.85 | > 100 | 0.773 | > 37.9 | 15.5 | > 100 | 29.2 | > 100 | 9.75 | > 100 | 4.22 | > 100 | 0.839 | > 100 | 5.6 | > 100 | 8.37 | > 100 |
| COCCNCC(O)Cn1c2ccc(Cl)cc2c2cc(Cl)ccc21 (stereo unspecified) | 2.98 | 6.92 | 2.14 | 5.25 | 1.83 | 3.64 | 2.06 | 4.36 | 1.98 | 3.89 | 2.1 | 4.7 | 2.19 | 4.64 | 2.23 | 4.24 | 1.9 | 3.42 | 2.06 | 5.08 |
| COc1ccc(C2C3=C(NC(=O)C2C#N)c2ccc4ccccc4c2OCC3)cc1 (stereo unspecified) | > 100 | > 100 | > 100 | > 100 | > 100 | > 100 | 20.4 | 60.6 | 34.9 | 77.3 | 87.1 | > 100 | > 100 | > 100 | > 100 | > 100 | > 100 | > 100 | 21.4 | 45.3 |
| COc1ccc(-c2cc3cccc(OC)c3c(=O)o2)cc1OC | 0.436 | > 100 | 29.7 | > 100 | 40 | > 100 | 0.636 | 88 | > 100 | > 100 | 47.9 | > 100 | 26.3 | > 100 | 8.49 | > 100 | 92.2 | > 100 | > 100 | > 100 |
| O=C(CC12CC3CC(CC(C3)C1)C2)NCCOCCOCCNC(=O)c1cc2c(o1)C(=O)c1ccccc1C2=O | 1.08 | 6.55 | 1.56 | 4.43 | 1.21 | 2.87 | 1.23 | 2.51 | 0.134 | 0.264 | 0.133 | 0.469 | 1.33 | 4.9 | 2.38 | 5.85 | 1.58 | 5.13 | 0.813 | 11.6 |
| COc1ccc2c(c1)O/C(=C\c1cccc(OCC(=O)Nc3nc4ccccc4s3)c1)C2=O | 0.749 | 2.42 | 4.87 | > 100 | 38.4 | > 100 | 26 | 97.6 | 2 | 4.37 | 3.58 | > 100 | 6.07 | > 100 | > 58.7 | > 100 | 9.61 | > 100 | 12.6 | > 100 |
